Conditions: Log P, [a] LC-UV, acidic range
Experimental: Measurement of Log P values was performed according to EEC directive 79/831 Annex V.A8 by HPLC (High Performance Liquid Chromatography) on reversed phase columns with the following methods:
[a] Log P value is determined by measurement of LC-UV, in an acidic range, with 0.1% formic acid in water and acetonitrile as eluent (linear gradient from 10% acetonitrile to 95% acetonitrile).
Calibration was done with straight-chain alkan2-ones (with 3 to 16 carbon atoms) with known Log P values (measurement of Log P values using retention times with linear interpolation between successive alkanones).

C#CCOc1ccc(F)c(F)c1C1CC(c2csc(C3CCN(C(=O)Nc4cc(C)ccc4C)CC3)n2)=NO1 (stereo not shown) [Example I-3]
chromatographic logP: 3.45

From patent US20170137417A1 (priority 2014, published 2017)
